{"source": "patent US7662997B2", "about": "“Synthesis and applications of 2-oxo-4-methylthiobutyric acid, its salts and its derivatives” (Adisseo Ireland Limited, priority 2004, dated 2010)", "settings": "chicken; for Cl D7-D21 Delta (%) / Consumption D7-D21 Delta (%) / Weight gain D7-D21 Delta (%): relative to control R1", "experimental": "The starting product is a food base that is deficient in methionine, methionine being the nutritional element for which it is desired to observe a response, and the said nutritional element that is lacking is then introduced in the reference forms and in the test form, and then the performance levels obtained in each of the systems are compared, system R1 corresponding to no introduction of methionine.\nTwo chickens per cage are tested, with controlled randomization by chance.\nSeven treatments were carried out:\nR1: without added methionine,\nR2 and R3: +Rhodimet™ NP99 (D,L-methionine powder sold by the applicant) at two different doses,\nR4 and R5: +Rhodimet™ AT88, at two different doses\nR6 and R7: +KMB, at two different doses.\nThey were each repeated 14 times and are represented in Table 3 below.\nZootechnical performance levels as a function of treatments (period 7-21 days)\nThe smaller the number of grams required to obtain one gram of weight gain, the greater the efficiency of the product, as illustrated in the FIGURE.\nThe ratio of KMB efficiency to DL-methionine efficiency is then calculated by calculating the ratio of the conversion efficiency values calculated at the two doses used.", "key": {"[1]": {"settings": "addition of 0.1% of methionine, 7-21 days, versus control"}, "[2]": {"settings": "higher dose (NP99 0.200%, AT88 0.225%, KMB 0.204%)"}, "[3]": {"settings": "higher dose (R3 NP99 0.200%, R5 AT88 0.225%, R7 KMB 0.204%)"}, "[4]": {"settings": "lower dose (NP99 0.100%, AT88 0.113%, KMB 0.102%)"}, "[5]": {"settings": "lower dose (R2 NP99 0.100%, R4 AT88 0.113%, R6 KMB 0.102%)"}}, "note": "Like-named read-outs stand apart in the source and are kept apart here.", "data": [{"smiles": "CSCCC(N)C(=O)O", "note": "(racemic) [Rhodimet™ NP99, D,L-methionine]", "values": [{"measurement": "decrease of the consumption index", "setting": "[1]", "value": "−11", "unit": "%"}, {"measurement": "increase of the weight gain", "setting": "[1]", "value": 90, "unit": "g"}, {"measurement": "Cl D7-D21 Delta (%)", "setting": "[2]", "value": "−9.2", "unit": "%"}, {"measurement": "Consumption D7-D21 Delta (%)", "setting": "[2]", "value": 5.5, "unit": "%"}, {"measurement": "Weight gain D7-D21 Delta (%)", "setting": "[2]", "value": 16.2, "unit": "%"}, {"measurement": "Consumption D7-D21 (g) Means", "setting": "[3]", "value": 823, "unit": "g"}, {"measurement": "Mortality D7-D21", "setting": "[3]", "value": 0.0, "unit": "%"}, {"measurement": "Weight gain D7-D21 (g) Means", "setting": "[3]", "value": 527, "unit": "b g"}, {"measurement": "Cl D7-D21 Delta (%)", "setting": "[4]", "value": "−11.1", "unit": "%"}, {"measurement": "Consumption D7-D21 Delta (%)", "setting": "[4]", "value": 6.7, "unit": "%"}, {"measurement": "Weight gain D7-D21 Delta (%)", "setting": "[4]", "value": 19.8, "unit": "%"}, {"measurement": "Consumption D7-D21 (g) Means", "setting": "[5]", "value": 832, "unit": "g"}, {"measurement": "Mortality D7-D21", "setting": "[5]", "value": 0.0, "unit": "%"}, {"measurement": "Weight gain D7-D21 (g) Means", "setting": "[5]", "value": 544, "unit": "b g"}]}]}
